The source of these data is patent US9751861B2, “N1-(3,3,3-trifluoro-2-hydroxo-2-methylpropionyl)-piperidine derivatives as inhibitors of pyruvate dehydrogenase kinase” (MERCK PATENT GMBH, priority 2013, dated 2017).

For one test, the target named is T1, PDHK2 (Homo sapiens, UniProt Q15119).
T1 construct: purchased Carna Bioscience
The experiment in a line: Biochemical activity testing of PDHK2: PDC inactivation assay. To be noted: human rec PDHK2, PDC from porcine heart, ATP 5 μM; read-out: IC50 PDHK2 (enzyme assay). The method in brief:
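Human recombinant PDHK2 (137 nM final) preincubated 30 min at RT with porcine heart PDC (20 mU/ml) and compound in pH 7.0 phosphate buffer, then phosphorylated with 5 μM ATP for 30 min at 37 °C. Residual PDC activity read as NADH fluorescence increase (Ex 340/Em 450) over 45 min; inhibitor-free reaction as full value, 3 mM DCA as zero, IC50 derived.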

Another test addresses T2, human PDHK2 (12-407) (Homo sapiens, UniProt Q15119).
T2 construct: The human PDHK2 (12-407) was produced in E. coli; His-tag (cleaved yes); made in house; host or cells: E. coli
The experiment in a line: Isothermal titration calorimetry (ITC) binding. To be noted: 30° C., pH 7.5. The method in brief: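 Untagged PDHK2 (12-407) from E. coli at 50 μM titrated into 5 μM compound at 30° C in pH 7.5 HEPES/KCl/MgCl2/phosphate buffer, ≤1% DMSO. One-site fit gave KA, ΔH^obs and N after heat-of-dilution correction; protein concentration referenced to a standard inhibitor and compound concentration adjusted to 1:1 stoichiometry.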
Background: In ITC the heat of successive injections is recorded.

Another test concerns PDH-Elalpha (pSer300). The experiment in a line: Cellular immunofluorescence assay in HEK293T cells. To be noted: Homo sapiens, HEK-293T, 5 hours incubation, anti-PDH-E1alpha pSer300 immunofluorescence, read-out: IC50 (cell data). Type of test: cell-based. The method in brief: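 HEK293T cells were exposed to compound for 5 hours, then fixed, permeabilised and immunostained for PDH-Elalpha pSer300 with Hoechst counterstain, read by laser scanning cytometry. Percent effect was normalized to a pharmacological inhibitor control and fitted to dose-response curves.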

A word on the IC50: it is the midpoint of a concentration-inhibition curve. Usually Kd stands for a measure of binding affinity in units of concentration. Low values mean higher affinity, high ones lower affinity.

For `Cc1cc(C2CCN(C(=O)[C@@](C)(O)C(F)(F)F)CC2)n(-c2ccc(F)cc2)n1` [Compound A41, (R)-1-{4-[2-(4-Fluoro-phenyl)-5-methyl-2H-pyrazol-3-yl]-piperidin-1-yl}-3,3,3-trifluoro-2-hydroxy-2-methyl-propan-1-one], the results for the IC50 on PDHK2 and with PDH-Elalpha (pSer300) were under 300 nM and 300 to 3000 nM, respectively. Moreover, on human PDHK2 (12-407), the Kd was under 300 nM.

Consider `C[C@@](O)(C(=O)N1CCC(c2cc(C(F)(F)F)nn2-c2ccc(F)cc2)CC1)C(F)(F)F` [Compound A42, (R)-1-{4-[2-(4-Fluoro-phenyl)-5-trifluoromethyl-2H-pyrazol-3-yl]-piperidin-1-yl}-3,3,3-trifluoro-2-hydroxy-2-methyl-propan-1-one], for which the half-maximal inhibitory concentration (IC50) on PDHK2 and with PDH-Elalpha (pSer300) was 300 to 3000 nM each time. The Kd on human PDHK2 (12-407) was under 300 nM.

Consider `C[C@@](O)(C(=O)N1CCC(c2cc(C(F)(F)F)nn2-c2ccccc2)CC1)C(F)(F)F` [Compound A43, (R)-1-[4-(2-Phenyl-5-trifluoromethyl-2H-pyrazol-3-yl)-piperidin-1-yl]-3,3,3-trifluoro-2-hydroxy-2-methyl-propan-1-one], for which the IC50 on PDHK2 and in the test with PDH-Elalpha (pSer300) was 300 to 3000 nM each time. Moreover, the Kd at human PDHK2 (12-407) is under 300 nM.

In the case of `CC1CN(C(=O)[C@@](C)(O)C(F)(F)F)CCC1c1ccn(-c2ccc(F)cc2)n1` (stereo partly drawn) [Compound A44, (R)-1-{4-[1-(4-Fluoro-phenyl)-1H-pyrazol-3-yl]-3-methyl-piperidin-1-yl}-3,3,3-trifluoro-2-hydroxy-2-methyl-propan-1-one], the IC50 at PDHK2 and in the test with PDH-Elalpha (pSer300) was 300 to 3000 nM in each case. The Kd at human PDHK2 (12-407) was under 300 nM.

Regarding `C[C@@H]1CN(C(=O)[C@@](C)(O)C(F)(F)F)CC[C@@H]1c1ccn(-c2ccc(F)cc2)n1` [Compound A46, (R)-3,3,3-Trifluoro-1-{(3S,4S)-4-[1-(4-fluoro-phenyl)-1H-pyrazol-3-yl]-3-methyl-piperidin-1-yl}-2-hydroxy-2-methyl-propan-1-one], the 50% inhibitory concentration (IC50) at PDHK2 was under 300 nM; in the test on PDH-Elalpha (pSer300) it was 300 to 3000 nM. On human PDHK2 (12-407), the dissociation constant Kd was under 300 nM.

For `COc1ccc(-n2nccc2C2CCN(C(=O)[C@@](C)(O)C(F)(F)F)CC2)cc1Cl` [Compound A48, (R)-3,3,3-Trifluoro-2-hydroxy-1-{4-[2-(3-chloro-4-methoxy-phenyl)-2H-pyrazol-3-yl]-piperidin-1-yl}-2-methyl-propan-1-one], the IC50 on PDHK2 is under 300 nM; in the test on PDH-Elalpha (pSer300), 300 to 3000 nM. Also, on human PDHK2 (12-407), the Kd was under 300 nM.

For `C[C@@](O)(C(=O)N1CCC(c2ccnn2-c2ccc(OCC(F)(F)F)cc2)CC1)C(F)(F)F` [Compound A49, (R)-3,3,3-Trifluoro-2-hydroxy-2-methyl-1-(4-{2-[4-(2,2,2-trifluoro-ethoxy)phenyl]-2H-pyrazol-3-yl}-piperidin-1-yl)-propan-1-one], the IC50 at PDHK2 is under 300 nM; in the test with PDH-Elalpha (pSer300), 300 to 3000 nM. The dissociation constant Kd at human PDHK2 (12-407) was under 300 nM.

`COc1ccc(-n2nccc2C2CCN(C(=O)[C@@](C)(O)C(F)(F)F)CC2)cn1` [Compound A53, (R)-3,3,3-Trifluoro-2-hydroxy-1-{4-[2-(6-methoxy-pyridin-3-yl)-2H-pyrazol-3-yl]-piperidin-1-yl}-2-methyl-propan-1-one]: the half-maximal inhibitory concentration (IC50) at PDHK2 and in the test on PDH-Elalpha (pSer300) was 300 to 3000 nM throughout. In addition, the Kd at human PDHK2 (12-407) was under 300 nM.

On to `C[C@@](O)(C(=O)N1CCC(n2c(-c3ccccc3F)n[nH]c2=O)CC1)C(F)(F)F` [Compound A54, 5-(2-Fluoro-phenyl)-4-[1-((R)-3,3,3-trifluoro-2-hydroxy-2-methyl-propionyl)piperidin-4-yl]-2,4-dihydro-[1,2,4]triazol-3-one], for which the values for the IC50 at PDHK2 and in the test on PDH-Elalpha (pSer300) were 300 to 3000 nM and 3000 to 50000 nM, respectively. On human PDHK2 (12-407), this compound came in with a Kd of 300 to 3000 nM.

Consider `C[C@@](O)(C(=O)N1CCC(n2cnnc2-c2ccccc2F)CC1)C(F)(F)F` [Compound A55, (R)-3,3,3-Trifluoro-1-{4-[3-(2-fluoro-phenyl)-[1,2,4]triazol-4-yl]-piperidin-1-yl}-2-hydroxy-2-methyl-propan-1-one], for which the IC50 at PDHK2 lay in the range of 300 to 3000 nM; in the test with PDH-Elalpha (pSer300), 3000 to 50000 nM. On human PDHK2 (12-407), this compound displayed an equilibrium dissociation constant (Kd) of 300 to 3000 nM.

With `COc1ccc(-n2nncc2C2CCN(C(=O)[C@@](C)(O)C(F)(F)F)CC2)cc1` [Compound A57, (R)-3,3,3-Trifluoro-2-hydroxy-1-{4-[3-(4-methoxy-phenyl)-3H-[1,2,3]triazol-4-yl]-piperidin-1-yl}-2-methyl-propan-1-one], the IC50 at PDHK2 was 300 to 3000 nM; in the test on PDH-Elalpha (pSer300), 3000 to 50000 nM. For the same compound, on human PDHK2 (12-407), the Kd lay within 300 to 3000 nM.

As for `C[C@@](O)(C(=O)N1CCC(n2ccnc2-c2ccccc2)CC1)C(F)(F)F` [Compound A61, (R)-3,3,3-Trifluoro-2-hydroxy-2-methyl-1-[4-(2-phenyl-imidazol-1-yl)-piperidin-1-yl]-propan-1-one], the half-inhibitory concentration (IC50) on PDHK2 was under 300 nM; in the test with PDH-Elalpha (pSer300) it was 3000 to 50000 nM. This compound also returned a Kd on human PDHK2 (12-407) of under 300 nM.

For the compound `C[C@@](O)(C(=O)N1CCC(n2ccnc2-c2ccc(Cl)cc2)CC1)C(F)(F)F` [Compound A62, (R)-1-{4-[2-(4-Chloro-phenyl)-imidazol-1-yl]-piperidin-1-yl}-3,3,3-trifluoro-2-hydroxy-2-methyl-propan-1-one], the figures for the IC50 at PDHK2 and with PDH-Elalpha (pSer300) were under 300 nM and 300 to 3000 nM, respectively. This compound also came in with an equilibrium dissociation constant (Kd) on human PDHK2 (12-407) of under 300 nM.

Consider `C[C@@](O)(C(=O)N1CCC(n2cncc2-c2ccccc2)CC1)C(F)(F)F` [Compound A63, (2R)-3,3,3-trifluoro-2-hydroxy-2-methyl-1-[4-(5-phenylimidazol-1-yl)-1-piperidyl]propan-1-one], for which the values for the IC50 on PDHK2 and with PDH-Elalpha (pSer300) were 300 to 3000 nM and 3000 to 50000 nM, respectively. The dissociation constant Kd on human PDHK2 (12-407) was under 300 nM.

Consider `C[C@@](O)(C(=O)N1CCC(n2cncc2-c2ccc(Cl)cc2)CC1)C(F)(F)F` [Compound A64, (2R)-1-[4-[5-(4-chlorophenyl)imidazol-1-yl]-1-piperidyl]-3,3,3-trifluoro-2-hydroxy-2-methyl-propan-1-one], for which the values for the IC50 at PDHK2 and with PDH-Elalpha (pSer300) were under 300 nM and 300 to 3000 nM, respectively. At human PDHK2 (12-407), this compound displayed a dissociation constant Kd of under 300 nM.

Regarding `C[C@@](O)(C(=O)N1CCC(c2cncn2-c2ccccc2)CC1)C(F)(F)F` [Compound A65, (R)-3,3,3-Trifluoro-2-hydroxy-2-methyl-1-[4-(3-phenyl-3H-imidazol-4-yl)piperidin-1-yl]-propan-1-one], the half-maximal inhibitory concentration (IC50) on PDHK2 and in the test on PDH-Elalpha (pSer300) was 300 to 3000 nM throughout. At human PDHK2 (12-407), this compound had a Kd of under 300 nM.

Take `C[C@@](O)(C(=O)N1CCC(c2ccnn2CC(F)(F)F)CC1)C(F)(F)F` [Compound A77, (R)-3,3,3-Trifluoro-2-hydroxy-2-methyl-1-{4-[2-(2,2,2-trifluoro-ethyl)-2H-pyrazol-3-yl]-piperidin-1-yl}-propan-1-one]: the IC50 on PDHK2 and in the test on PDH-Elalpha (pSer300) was 3000 to 50000 nM in each case. The Kd at human PDHK2 (12-407) lay in the range of 300 to 3000 nM.

For the compound `COCCn1nccc1C1CCN(C(=O)[C@@](C)(O)C(F)(F)F)CC1` [Compound A78, (R)-3,3,3-Trifluoro-2-hydroxy-1-[4-[2-(2-methoxyethyl)-2H-pyrazol-3-yl]-1-piperidyl]-2-methyl-propan-1-one], the IC50 was in the range of 300 to 3000 nM on PDHK2 and 3000 to 50000 nM with PDH-Elalpha (pSer300). On human PDHK2 (12-407), this compound registered an equilibrium dissociation constant (Kd) of under 300 nM.

In the case of `C[C@@](O)(C(=O)N1CCC(c2ccnn2-c2ccc(C(F)(F)F)nc2)CC1)C(F)(F)F` [Compound A80, (R)-3,3,3-Trifluoro-2-hydroxy-2-methyl-1-[4-[2-[6-(trifluoromethyl)-3-pyridyl]-2H-pyrazol-3-yl]-1-piperidyl]propan-1-one], the IC50 fell in the range of 300 to 3000 nM at PDHK2 and 3000 to 50000 nM in the test on PDH-Elalpha (pSer300). Moreover, at human PDHK2 (12-407), the Kd was under 300 nM.

Consider `C[C@@](O)(C(=O)N1CCC(c2ccnn2-c2ncc(F)cc2F)CC1)C(F)(F)F` [Compound A82, (R)-1-[4-[2-(3,5-Difluoro-2-pyridyl)-2H-pyrazol-3-yl]-1-piperidyl]-3,3,3-trifluoro-2-hydroxy-2-methyl-propan-1-one], for which the results for the IC50 on PDHK2 and with PDH-Elalpha (pSer300) were under 300 nM and 300 to 3000 nM, respectively. This compound also had a Kd at human PDHK2 (12-407) of under 300 nM.

In the case of `Cc1ccc(-n2nccc2C2CCN(C(=O)[C@@](C)(O)C(F)(F)F)CC2)nc1` [Compound A83, (R)-3,3,3-Trifluoro-2-hydroxy-2-methyl-1-{4-[2-(5-methyl-pyridin-2-yl)-2H-pyrazol-3-yl]-piperidin-1-yl}-propan-1-one], the IC50 on PDHK2 and with PDH-Elalpha (pSer300) was 300 to 3000 nM each time. Further, the Kd at human PDHK2 (12-407) was under 300 nM.

Turning to `Cn1cc(-n2nccc2C2CCN(C(=O)[C@@](C)(O)C(F)(F)F)CC2)cn1` [Compound A85, (R)-3,3,3-Trifluoro-2-hydroxy-2-methyl-1-[4-[2-(1-methylpyrazol-4-yl)-2H-pyrazol-3-yl]-1-piperidyl]propan-1-one], the values for the IC50 at PDHK2 and with PDH-Elalpha (pSer300) were 300 to 3000 nM and 3000 to 50000 nM, respectively. The compound further displayed a dissociation constant (Kd) at human PDHK2 (12-407) of under 300 nM.

As to `Cc1csc(-n2nccc2C2CCN(C(=O)[C@@](C)(O)C(F)(F)F)CC2)n1` [Compound A86, (R)-3,3,3-Trifluoro-2-hydroxy-2-methyl-1-[4-[2-(4-methylthiazol-2-yl)-2H-pyrazol-3-yl]-1-piperidyl]propan-1-one], the values for the IC50 on PDHK2 and in the test with PDH-Elalpha (pSer300) were 300 to 3000 nM and 3000 to 50000 nM, respectively. The compound further registered a Kd on human PDHK2 (12-407) of under 300 nM.
